{
  "source": "patent US20060002934A1",
  "about": "(priority 2002, published 2006)",
  "key": {"[1]": {"test_system": "parental, wt and mutant E-cadherin expressing MDA-MB-435S cells", "assay": "Sensitivity profiling by XTT-cell proliferation and viability assay", "format": "cell-based, human", "details": "48 h treatment, increasing concentrations; parental vs wt vs mutant E-cadherin cells", "description": "Cells were seeded at a density of […] cells per well in 96-well microtiter plates (Nunc, Wiesbaden-Biebrich, Germany) in 100 μl DMEM with 10% FCS per-well, and cell proliferation was investigated by XTT-cell proliferation and viability assay (Roche Molecular Biochemicals, Mannheim, Germany). After 24, 48 and 72 h, 50 μl XTT labeling mixture was added. The cleavage of the tetrazolium salt XTT to form a formazan dye that occurs in metabolically active viable cells was quantified spectrophotometrically by measuring the absorbance of the formazan product at 450 nm by an ELISA plate reader. The absorbance values obtained when culture medium without cells was assayed was subtracted from the values obtained with cells. Quadruplicate determinations were performed for each time point. The sensitivity of parental, wt and mutant E-cadherin expressing MDA-MB-435S cells to the chemotherapeutic agents cisplatin, etoposide and 5-FU was investigated by XTT-cell proliferation and viability assay as described above. […] After 48 h, 50 μXTT labeling mixture was added and the absorbance values at 450 nm were measured spectrophotometrically by an ELISA plate reader. The absorbance values obtained when culture medium without cells was assayed, were subtracted from the values obtained with cells. […] The percentage of viable cells was determined corresponding to non-treated cells."}, "[2]": {"test_system": "parental, wt and mutant E-cadherin expressing MDA-MB-435S cells", "assay": "Colony formation assay", "format": "cell-based, human", "details": "2 h treatment, colonies counted after 7 days; parental vs wt vs mutant E-cadherin cells", "description": "Chemosensitivity to cisplatin, etoposide and 5-FU of parental, wt and mutant E-cadherin expressing MDA-MB-435S cells was investigated by colony formation assay. Cells were seeded at a density of 2×10^3 cells per 6-well and treated 3 h later for 2 h with cisplatin, etoposide or 5-FU. Colonies were fixed and stained after 7 days with Diff Quick Reagent (Dade Behring, Liederbach, Germany) and the colony number was determined with Scion Image Software from Scion Corporation (Frederick, USA). The percentage of colonies was determined corresponding to non-treated cells."}},
  "data": [
    {"smiles": "N.N.[Cl][Pt][Cl]", "note": "[cisplatin]", "values": [
      {"measurement": "sensitivity profile, cell survival by XTT assay", "setting": "[1]", "value": "reduced sensitivity of wt or mutant E-cadherin expressing MDA-MB-435S cells as compared to parental cells"},
      {"measurement": "sensitivity profile, colony formation", "setting": "[2]", "value": "reduced sensitivity of wt or mutant E-cadherin expressing MDA-MB-435S cells as compared to parental cells"}
    ]}
  ]
}
